According to patent US8178506B2, “Oligomeric compounds and compositions for use in modulation of small non-coding RNAs” (Regulus Therapeutics Inc., priority 2003, dated 2012):
In the oligonucleotide strings, read from the 5' end, every base follows the letter of its sugar. An asterisk marks phosphorothioate; unmarked linkages are phosphodiester. Other units and linkages are bracketed, terminal groups are in braces. A string of capitals states the bases alone. e = 2'-O-(2-methoxyethyl) (MOE); [5mC] = 5-methylcytosine; d = 2'-deoxy (DNA)

Columns and labels:
T47D cells = experiment: Cell cycle assay in T47D cells; type: cell-based, human; details: 150 nM, 48 hours, relative to untreated control
Procedure: (§1) BJ cells were routinely cultured in MEM high glucose with 2 mM L-glutamine and Earle's BSS adjusted to contain 1.5 g/L sodium bicarbonate and supplemented with 10% fetal bovine serum, 0.1 mM non-essential amino acids and 1.0 mM sodium pyruvate (all media and supplements from Invitrogen Life Technologies, Carlsbad, Calif.). B16-F10 cells were routinely cultured in DMEM high glucose (Invitrogen Life Technologies, Carlsbad, Calif.) supplemented with 10% fetal bovine serum (Invitrogen Life Technologies, Carlsbad, Calif.). T47D cells were cultured in DMEM High glucose media (Invitrogen Life Technologies, Carlsbad, Calif.) supplemented with 10% fetal bovine serum. […] Cells were plated on collagen-coated 24-well plates (Falcon-Primaria #3047, BD Biosciences, Bedford, Mass.) at approximately 50,000 cells per well and allowed to attach to wells overnight.
(§2) In further studies, additional cell lines were treated with oligomeric compounds targeted against miRNAs to assess the effects of each oligomeric compound on cell cycling. BJ, B16, T47D, and HeLa cells were cultured and transfected as described above. […] T47Dp53 cells are T47D cells that have been transfected with and selected for maintenance of a plasmid that expresses a wildtype copy of the p53 gene (for example, pCMV-p53; Clontech, Palo Alto, Calif.), using standard laboratory procedures. BJ cells were treated with 200 nM of each oligomeric compound, and T47D, T47Dp53, HeLa, and B16 cells were treated with 150 nM of each oligomeric compound. The human foreskin fibroblast BJ cell line represents a non-cancer cell line, while HeLa, T47D, T47Dp53 cells and the mouse melanoma cell line B16-F10 represent cancerous cell lines. For comparison, oligomeric compounds ISIS 183891 (SEQ ID NO: 847) and ISIS 285717 ([…]; herein incorporated as SEQ ID NO: 857), both targeting the kinesin-like 1/Eg5 mRNA, involved in cell cycling, were used as positive controls. The random-mer ISIS 29848 was used as a negative control. Additionally, the oligomeric compounds ISIS Number 25690 ([…]; herein incorporated as SEQ ID NO: 858) and ISIS Number 25691 ([…]; herein incorporated as SEQ ID NO: 859), targeted to nucleotides 3051-3070 and 3085-3104, respectively, of the mRNA encoding the Drosha RNase III (GenBank Accession NM_013235.2, incorporated herein as SEQ ID NO: 860) were also tested. ISIS Number 25690 and ISIS Number 25691 are 5-10-52′-MOE gapmer compounds, 20 nucleotides in length, with phosphorothioate internucleoside linkages throughout the oligomeric compound. All cytidine residues are 5-methylcytidines. Transfections were performed using the methods described herein. Cells were prepared for flow cytometry 48-hours after oligonucleotide treatment. Results of these studies are shown in Table 35, where data are expressed as percentage of cells in each phase relative to the untreated control cells in that phase.

T47Dp53 cells = experiment: Cell cycle assay in T47Dp53 cells; type: cell-based, human; details: 150 nM, 48 hours, relative to untreated control
BJ cells = experiment: Cell cycle assay in BJ cells; type: cell-based, human; details: 200 nM, 48 hours, relative to untreated control
Procedure: as §1, §2

DIO mice = experiment: Diet-induced obesity (DIO) mice; type: in vivo; details: for liver toxicity (plasma transaminase levels, weekly): 25 mg/kg s.c. twice weekly, 25 mg/kg
Procedure: As described, supra, the C57BL/6 mouse strain is reported to be susceptible to hyperlipidemia-induced atherosclerotic plaque formation, and when these mice are fed a high-fat diet, they develop diet-induced obesity (DIO). Accordingly, the DIO mouse model is useful for the investigation of obesity and development of agents designed to treat these conditions. In one embodiment of the present invention, oligomeric compounds targeting miRNAs were tested in the DIO model. Normal C57/BL6 male mice were fed a high fat diet (40% fat, 41% carbohydrate, 18% protein) for 12 weeks before the study began. DIO mice were then randomized by weight and insulin values. Initial body fat composition was determined by Dual X-ray Absorptiometry (DEXA) Scan. DIO mice were then subcutaneously injected with oligomeric compounds of the invention at a dose of 25 mg/kg, twice weekly. DIO mice were treated with oligomeric compounds ISIS Numbers 327901 and 340927 targeting mir-143, ISIS Numbers 327892 and 340926 targeting mir-131/mir-9, ISIS Numbers 327878 and ISIS Number 345349 targeting mir-203, and ISIS Numbers 327889 and 340925, targeting mir-23b. […] DEXA scans were also performed at weeks 0, 3 and 5 after treatment with the oligomeric compounds to assess the fat mass to lean mass ratio. The effects of target inhibition on levels of plasma glucose and insulin, liver transaminases, cholesterol and triglycerides, were also assessed weekly by tail bleed, and after the treatment period, mice were sacrificed and liver and kidney heart, as well as white adipose tissue (WAT) tissues collected. The mRNA expression levels of the Glut4, aP2, HSL and PPARγ marker genes are also assessed. […] Furthermore, some improvement in body composition (a reduction in body weight and fat mass) was observed.

Row | Substance | % cells in cell cycle phase G1 (T47D cells) | % cells in cell cycle phase G2/M (T47D cells) | % cells in cell cycle phase S (T47D cells) | % cells in cell cycle phase aneuploid (T47D cells) | % cells in cell cycle phase subG1 (T47D cells) | % cells in cell cycle phase G1 (T47Dp53 cells) | % cells in cell cycle phase G2/M (T47Dp53 cells) | % cells in cell cycle phase S (T47Dp53 cells) | % cells in cell cycle phase aneuploid (T47Dp53 cells) | % cells in cell cycle phase subG1 (T47Dp53 cells) | % cells in cell cycle phase G1 (BJ cells) | % cells in cell cycle phase G2/M (BJ cells) | % cells in cell cycle phase S (BJ cells) | % cells in cell cycle phase aneuploid (BJ cells) | % cells in cell cycle phase subG1 (BJ cells) | liver toxicity (plasma transaminase levels, weekly) (DIO mice) | insulin levels (DIO mice; two and four week time points, vs saline)
1 | 327905 (antisense e[5mC]*eA*eG*eA*e[5mC]*eT*e[5mC]*e[5mC]*eG*eG*eT*eG*eG*eA*eA*eT*eG*eA*eA*eG*eG*eA) [compound 327905] | 97% | 103% | 101% | 164% | 81% | 112% | 104% | 80% | 103% | 109% | 100% | 109% | 77% | 102% | 105% | – | –
2 | TGAGCTACAGTGCTTCATCTCA [ISIS 327901] (chemistry not given here) [uniform 2′-MOE PS; targets mir-143] | – | – | – | – | – | – | – | – | – | – | – | – | – | – | – | did not appear to cause liver toxicity | –
3 | TGAGCTACAGTGCTTCATCTCA [ISIS 340927] (chemistry not given here) [5-10-7 2′-MOE gapmer PS; targets mature mir-143] | – | – | – | – | – | – | – | – | – | – | – | – | – | – | – | did not cause significant increases in liver toxicity | effective at reducing insulin levels
4 | 328759 (antisense eG*eA*eG*eG*eG*dA*dT*dT*dG*dT*dA*dT*dG*dA*dA*e[5mC]*eA*eT*e[5mC]*eT) [compound 328759] | 86% | 122% | 87% | 223% | 123% | 99% | 108% | 93% | 109% | 423% | 91% | 141% | 117% | 160% | 164% | – | –
5 | ACTTTCGGTTATCTAGCTTTA [ISIS 327892] (chemistry not given here) [uniform 2′-MOE PS; targets mir-131-2/mir-9] | – | – | – | – | – | – | – | – | – | – | – | – | – | – | – | did not appear to cause liver toxicity | –
6 | 327902 (antisense eG*eG*e[5mC]*eT*eG*eT*e[5mC]*eA*eA*eT*eT*e[5mC]*eA*eT*eA*eG*eG*eT*e[5mC]*eA*eG) [compound 327902] | 75% | 116% | 120% | 162% | 102% | 100% | 102% | 98% | 97% | 155% | 99% | 108% | 88% | 82% | 91% | – | –
